≈ marks a conversion by molar mass, not a printed value.
Experiment: Solubility of the organic compound in nonpolar / polar solvent (added to 1.0 mL solvent to saturation point)
Assay type: physicochemical
Text: The raw material(s) is not particularly limited as long as the raw material(s) contains the organic compound, and the raw materials may contain the organic compound and an additive. The additive is not particularly limited as long as an object of a present inventive subject matter is not interfered with, and may be a known additive. The mixing ratio of the additive in the raw materials is not particularly limited, however, preferably in a range of 0.00001 mol % to 30 mol %, and further preferably in a range of 0.0001 mol % to 10 mol %. […] According to a present inventive subject matter, the organic compound is added into the polar solvent that is 1.0 mL to saturation point, and the remaining organic compound in the polar solvent was measured by deducting the remaining amount of organic compound in the polar solvent from the total amount of added organic compound in the polar solvent. […] According to a present inventive subject matter, the organic compound is added into the nonpolar solvent that is 1.0 mL to saturation point, and the remaining organic compound in the nonpolar solvent was measured by deducting the remaining amount of organic compound in the nonpolar solvent from the total amount of added organic compound in the nonpolar solvent. […]

dissolution into the solvent (Comparative Example 4, only 2-Pyrrolidone used as the solvent of the raw-material solution): hardly dissolved | solubility to mesitylene (nonpolar solvent mesitylene, temperature of 25° C.): 1500 µg/mL (≈ 2080 µM)
Compound: c12c3c4c5c1c1c6c7c2c2c8c3c3c9c4c4c%10c5c5c1c1c6c6c%11c7c2c2c7c8c3c3c8c9c4c4c9c%10c5c5c1c1c6c6c%11c2c2c7c3c3c8c4c4c9c5c1c1c6c2c3c41 [C60 fullerene]

From US20200332133A1, “SOLVENT AND METHOD OF FORMING ORGANIC FILM USING SOLVENT” (FLOSFIA INC., priority 2017, published 2020)
